# Reference: ChEMBL document CHEMBL1250513, “(R,S)-anti-1-amino-2-[18F]fluorocyclopentyl-1-carboxylic acid: synthesis from racemic 2-benzyloxycyclopentanone and biological evaluation for brain tumor imaging with positron emission tomography” (J Med Chem, 2010)
# Assays:
# Liver [1] = experiment: Biodistribution in rat 9L tumor bearing fisher rat liver at 40 to 50 uCi, iv after 60 mins; assay type: ADME, organism-based; settings: in vivo, 1 h
# Bone [2] = experiment: Biodistribution in rat 9L tumor bearing fisher rat bone at 40 to 50 uCi, iv after 60 mins; assay type: ADME, organism-based, Bone element; settings: in vivo, 1 h
# Testes [3] = experiment: Biodistribution in rat 9L tumor bearing fisher rat testes at 40 to 50 uCi, iv after 30 mins; assay type: ADME, organism-based, Testis; settings: in vivo, 0.5 h
# Kidney [4] = experiment: Biodistribution in rat 9L tumor bearing fisher rat kidney at 40 to 50 uCi, iv after 120 mins; assay type: ADME, organism-based; settings: in vivo, 2 h
# Heart [5] = experiment: Biodistribution in rat 9L tumor bearing fisher rat heart at 40 to 50 uCi, iv after 120 mins; assay type: ADME, organism-based; settings: in vivo, 2 h
# Pancreas [6] = experiment: Biodistribution in rat 9L tumor bearing fisher rat pancreas at 40 to 50 uCi, iv after 30 mins; assay type: ADME, organism-based; settings: in vivo, 0.5 h
# Brain [7] = experiment: Biodistribution in rat 9L tumor bearing fisher rat brain at 40 to 50 uCi, iv after 30 mins; assay type: ADME, organism-based; settings: in vivo, 0.5 h
# Bone [8] = experiment: Biodistribution in rat 9L tumor bearing fisher rat bone at 40 to 50 uCi, iv after 30 mins; assay type: ADME, organism-based, Bone element; settings: in vivo, 0.5 h
# Blood [9] = experiment: Biodistribution in rat 9L tumor bearing fisher rat blood at 40 to 50 uCi, iv after 15 mins; assay type: ADME, organism-based; settings: in vivo, 0.25 h
# Muscle tissue [10] = experiment: Biodistribution in rat 9L tumor bearing fisher rat muscle at 40 to 50 uCi, iv after 15 mins; assay type: ADME, organism-based; settings: in vivo, 0.25 h
# Blood [11] = experiment: Biodistribution in rat 9L tumor bearing fisher rat blood at 40 to 50 uCi, iv after 30 mins; assay type: ADME, organism-based; settings: in vivo, 0.5 h
# Kidney [12] = experiment: Biodistribution in rat 9L tumor bearing fisher rat kidney at 40 to 50 uCi, iv after 15 mins; assay type: ADME, organism-based; settings: in vivo, 0.25 h
# Bone [13] = experiment: Biodistribution in rat 9L tumor bearing fisher rat bone at 40 to 50 uCi, iv after 15 mins; assay type: ADME, organism-based, Bone element; settings: in vivo, 0.25 h
# Liver [14] = experiment: Biodistribution in rat 9L tumor bearing fisher rat liver at 40 to 50 uCi, iv after 30 mins; assay type: ADME, organism-based; settings: in vivo, 0.5 h
# Brain [15] = experiment: Biodistribution in rat 9L tumor bearing fisher rat brain at 40 to 50 uCi, iv after 60 mins; assay type: ADME, organism-based; settings: in vivo, 1 h
# Lung [16] = experiment: Biodistribution in rat 9L tumor bearing fisher rat lung at 40 to 50 uCi, iv after 15 mins; assay type: ADME, organism-based; settings: in vivo, 0.25 h
# Muscle tissue [17] = experiment: Biodistribution in rat 9L tumor bearing fisher rat muscle at 40 to 50 uCi, iv after 60 mins; assay type: ADME, organism-based; settings: in vivo, 1 h
# [18] = Biodistribution in rat 9L tumor bearing fisher rat tumor at 40 to 50 uCi, iv after 30 mins; assay type: ADME, organism-based, Neoplasm; settings: in vivo, 0.5 h
# Heart [19] = experiment: Biodistribution in rat 9L tumor bearing fisher rat heart at 40 to 50 uCi, iv after 30 mins; assay type: ADME, organism-based; settings: in vivo, 0.5 h
# Spleen [20] = experiment: Biodistribution in rat 9L tumor bearing fisher rat spleen at 40 to 50 uCi, iv after 60 mins; assay type: ADME, organism-based; settings: in vivo, 1 h
# Muscle tissue [21] = experiment: Biodistribution in rat 9L tumor bearing fisher rat muscle at 40 to 50 uCi, iv after 30 mins; assay type: ADME, organism-based; settings: in vivo, 0.5 h
# Spleen [22] = experiment: Biodistribution in rat 9L tumor bearing fisher rat spleen at 40 to 50 uCi, iv after 15 mins; assay type: ADME, organism-based; settings: in vivo, 0.25 h
# Blood [23] = experiment: Biodistribution in rat 9L tumor bearing fisher rat blood at 40 to 50 uCi, iv after 60 mins; assay type: ADME, organism-based; settings: in vivo, 1 h
# Testes [24] = experiment: Biodistribution in rat 9L tumor bearing fisher rat testes at 40 to 50 uCi, iv after 120 mins; assay type: ADME, organism-based, Testis; settings: in vivo, 2 h
# Liver [25] = experiment: Biodistribution in rat 9L tumor bearing fisher rat liver at 40 to 50 uCi, iv after 15 mins; assay type: ADME, organism-based; settings: in vivo, 0.25 h
# [26] = Ratio of drug uptake in tumor to brain in rat 9L tumor bearing fisher rat […] at 40 to 50 uCi, iv after 120 mins; assay type: ADME, organism-based; settings: in vivo, 2 h
# Muscle tissue [27] = experiment: Biodistribution in rat 9L tumor bearing fisher rat muscle at 40 to 50 uCi, iv after 120 mins; assay type: ADME, organism-based; settings: in vivo, 2 h
# [28] = Biodistribution in rat 9L tumor bearing fisher rat tumor at 40 to 50 uCi, iv after 60 mins; assay type: ADME, organism-based, Neoplasm; settings: in vivo, 1 h
# Heart [29] = experiment: Biodistribution in rat 9L tumor bearing fisher rat heart at 40 to 50 uCi, iv after 15 mins; assay type: ADME, organism-based; settings: in vivo, 0.25 h
# Bone [30] = experiment: Biodistribution in rat 9L tumor bearing fisher rat bone at 40 to 50 uCi, iv after 120 mins; assay type: ADME, organism-based, Bone element; settings: in vivo, 2 h
# Pancreas [31] = experiment: Biodistribution in rat 9L tumor bearing fisher rat pancreas at 40 to 50 uCi, iv after 120 mins; assay type: ADME, organism-based; settings: in vivo, 2 h
# Testes [32] = experiment: Biodistribution in rat 9L tumor bearing fisher rat testes at 40 to 50 uCi, iv after 60 mins; assay type: ADME, organism-based, Testis; settings: in vivo, 1 h
# Pancreas [33] = experiment: Biodistribution in rat 9L tumor bearing fisher rat pancreas at 40 to 50 uCi, iv after 60 mins; assay type: ADME, organism-based; settings: in vivo, 1 h
# [34] = Ratio of drug uptake in tumor to brain in rat 9L tumor bearing fisher rat […] at 40 to 50 uCi, iv after 60 mins; assay type: ADME, organism-based; settings: in vivo, 1 h
# Kidney [35] = experiment: Biodistribution in rat 9L tumor bearing fisher rat kidney at 40 to 50 uCi, iv after 30 mins; assay type: ADME, organism-based; settings: in vivo, 0.5 h
# Brain [36] = experiment: Biodistribution in rat 9L tumor bearing fisher rat brain at 40 to 50 uCi, iv after 120 mins; assay type: ADME, organism-based; settings: in vivo, 2 h
# Liver [37] = experiment: Biodistribution in rat 9L tumor bearing fisher rat liver at 40 to 50 uCi, iv after 120 mins; assay type: ADME, organism-based; settings: in vivo, 2 h
# Blood [38] = experiment: Biodistribution in rat 9L tumor bearing fisher rat blood at 40 to 50 uCi, iv after 120 mins; assay type: ADME, organism-based; settings: in vivo, 2 h
# [39] = Biodistribution in rat 9L tumor bearing fisher rat tumor at 40 to 50 uCi, iv after 120 mins; assay type: ADME, organism-based, Neoplasm; settings: in vivo, 2 h
# Pancreas [40] = experiment: Biodistribution in rat 9L tumor bearing fisher rat pancreas at 40 to 50 uCi, iv after 15 mins; assay type: ADME, organism-based; settings: in vivo, 0.25 h
# [41] = Ratio of drug uptake in tumor to brain in rat 9L tumor bearing fisher rat […] at 40 to 50 uCi, iv after 30 mins; assay type: ADME, organism-based; settings: in vivo, 0.5 h
# Lung [42] = experiment: Biodistribution in rat 9L tumor bearing fisher rat lung at 40 to 50 uCi, iv after 120 mins; assay type: ADME, organism-based; settings: in vivo, 2 h
# Brain [43] = experiment: Biodistribution in rat 9L tumor bearing fisher rat brain at 40 to 50 uCi, iv after 15 mins; assay type: ADME, organism-based; settings: in vivo, 0.25 h
# Heart [44] = experiment: Biodistribution in rat 9L tumor bearing fisher rat heart at 40 to 50 uCi, iv after 60 mins; assay type: ADME, organism-based; settings: in vivo, 1 h
# Spleen [45] = experiment: Biodistribution in rat 9L tumor bearing fisher rat spleen at 40 to 50 uCi, iv after 30 mins; assay type: ADME, organism-based; settings: in vivo, 0.5 h
# [46] = Ratio of drug uptake in tumor to brain in rat 9L tumor bearing fisher rat […] at 40 to 50 uCi, iv after 15 mins; assay type: ADME, organism-based; settings: in vivo, 0.25 h
# Lung [47] = experiment: Biodistribution in rat 9L tumor bearing fisher rat lung at 40 to 50 uCi, iv after 30 mins; assay type: ADME, organism-based; settings: in vivo, 0.5 h
# Spleen [48] = experiment: Biodistribution in rat 9L tumor bearing fisher rat spleen at 40 to 50 uCi, iv after 120 mins; assay type: ADME, organism-based; settings: in vivo, 2 h
# Testes [49] = experiment: Biodistribution in rat 9L tumor bearing fisher rat testes at 40 to 50 uCi, iv after 15 mins; assay type: ADME, organism-based, Testis; settings: in vivo, 0.25 h
# Kidney [50] = experiment: Biodistribution in rat 9L tumor bearing fisher rat kidney at 40 to 50 uCi, iv after 60 mins; assay type: ADME, organism-based; settings: in vivo, 1 h
# [51] = Biodistribution in rat 9L tumor bearing fisher rat tumor at 40 to 50 uCi, iv after 15 mins; assay type: ADME, organism-based, Neoplasm; settings: in vivo, 0.25 h
# Lung [52] = experiment: Biodistribution in rat 9L tumor bearing fisher rat lung at 40 to 50 uCi, iv after 60 mins; assay type: ADME, organism-based; settings: in vivo, 1 h
structure (smiles),measurement,setting,value
N[C@@]1(C(=O)O)CCC[C@@H]1[18F] (racemic),Drug uptake,Liver [1],0.41 % ID/g
same,Drug uptake,Bone [2],0.14 % ID/g
same,Drug uptake,Testes [3],0.18 % ID/g
same,Drug uptake,Kidney [4],0.89 % ID/g
same,Drug uptake,Heart [5],0.28 % ID/g
same,Drug uptake,Pancreas [6],2.91 % ID/g
same,Drug uptake,Brain [7],0.13 % ID/g
same,Drug uptake,Bone [8],0.17 % ID/g
same,Drug uptake,Blood [9],0.48 % ID/g
same,Drug uptake,Muscle tissue [10],0.28 % ID/g
same,Drug uptake,Blood [11],0.29 % ID/g
same,Drug uptake,Kidney [12],4.87 % ID/g
same,Drug uptake,Bone [13],0.27 % ID/g
same,Drug uptake,Liver [14],0.63 % ID/g
same,Drug uptake,Brain [15],0.1 % ID/g
same,Drug uptake,Lung [16],1.53 % ID/g
same,Drug uptake,Muscle tissue [17],0.24 % ID/g
same,Drug uptake,[18],1.68 % ID/g
same,Drug uptake,Heart [19],0.44 % ID/g
same,Drug uptake,Spleen [20],0.3 % ID/g
same,Drug uptake,Muscle tissue [21],0.28 % ID/g
same,Drug uptake,Spleen [22],0.64 % ID/g
same,Drug uptake,Blood [23],0.21 % ID/g
same,Drug uptake,Testes [24],0.13 % ID/g
same,Drug uptake,Liver [25],0.93 % ID/g
same,Ratio,[26],10
same,Drug uptake,Muscle tissue [27],0.17 % ID/g
same,Drug uptake,[28],1.24 % ID/g
same,Drug uptake,Heart [29],0.56 % ID/g
same,Drug uptake,Bone [30],0.13 % ID/g
same,Drug uptake,Pancreas [31],1.84 % ID/g
same,Drug uptake,Testes [32],0.14 % ID/g
same,Drug uptake,Pancreas [33],2.65 % ID/g
same,Ratio,[34],12
same,Drug uptake,Kidney [35],3.44 % ID/g
same,Drug uptake,Brain [36],0.1 % ID/g
same,Drug uptake,Liver [37],0.4 % ID/g
same,Drug uptake,Blood [38],0.14 % ID/g
same,Drug uptake,[39],0.98 % ID/g
same,Drug uptake,Pancreas [40],2.77 % ID/g
same,Ratio,[41],13
same,Drug uptake,Lung [42],0.78 % ID/g
same,Drug uptake,Brain [43],0.12 % ID/g
same,Drug uptake,Heart [44],0.3 % ID/g
same,Drug uptake,Spleen [45],0.48 % ID/g
same,Ratio,[46],5
same,Drug uptake,Lung [47],1.13 % ID/g
same,Drug uptake,Spleen [48],0.18 % ID/g
same,Drug uptake,Testes [49],0.23 % ID/g
same,Drug uptake,Kidney [50],2 % ID/g
same,Drug uptake,[51],0.57 % ID/g
same,Drug uptake,Lung [52],0.8 % ID/g
